This is an account of results in patent US20230091225A1, “Bifunctional chimeric heterocyclic compounds for targeted degradation of androgen receptors and use thereof” (HINOVA PHARMACEUTICALS INC., priority 2019, published 2023).

Where two headings read alike, the source gives them in different places. Where only a bound is given, the exact number is not on record here.

The test concerns the target T1, androgen receptor (AR) (Homo sapiens, UniProt P10275).
T1 sequence (P10275 1-920): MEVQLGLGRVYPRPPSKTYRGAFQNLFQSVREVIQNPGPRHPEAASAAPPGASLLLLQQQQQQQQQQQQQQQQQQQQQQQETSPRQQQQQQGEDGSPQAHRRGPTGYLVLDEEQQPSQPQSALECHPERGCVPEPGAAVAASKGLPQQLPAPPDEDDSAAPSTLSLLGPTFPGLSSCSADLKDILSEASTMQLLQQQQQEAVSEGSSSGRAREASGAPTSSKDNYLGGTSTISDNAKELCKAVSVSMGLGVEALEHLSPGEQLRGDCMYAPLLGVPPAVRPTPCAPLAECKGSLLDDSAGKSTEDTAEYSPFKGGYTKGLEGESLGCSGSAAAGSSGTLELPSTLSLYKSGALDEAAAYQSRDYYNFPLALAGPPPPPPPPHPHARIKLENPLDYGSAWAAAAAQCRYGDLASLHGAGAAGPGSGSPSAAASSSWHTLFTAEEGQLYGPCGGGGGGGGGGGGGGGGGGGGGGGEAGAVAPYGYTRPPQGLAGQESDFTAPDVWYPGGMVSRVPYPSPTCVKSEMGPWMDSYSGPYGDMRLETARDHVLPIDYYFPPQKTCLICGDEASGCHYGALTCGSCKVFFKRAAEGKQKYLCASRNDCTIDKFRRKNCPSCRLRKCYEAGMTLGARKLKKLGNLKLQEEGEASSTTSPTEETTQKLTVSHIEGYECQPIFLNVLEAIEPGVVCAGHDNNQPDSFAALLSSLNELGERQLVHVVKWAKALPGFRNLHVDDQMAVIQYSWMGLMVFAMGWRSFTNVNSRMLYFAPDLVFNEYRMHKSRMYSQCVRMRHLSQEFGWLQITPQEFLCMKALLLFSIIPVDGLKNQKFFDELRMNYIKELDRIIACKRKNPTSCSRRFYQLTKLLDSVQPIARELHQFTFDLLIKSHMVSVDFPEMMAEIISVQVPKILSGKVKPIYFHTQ
In words: Degradation of androgen receptor (AR) protein in VCaP cells by ELISA. Type of test: cell-based. Conditions: for Dmax: VCaP. In general terms: ELISA stands for enzyme-linked immunosorbent assay.

[1] abbreviates: AR degradation, VCaP cells, 16 h, ELISA, Table 3-1, read-out: DC50.
The mark [2] stands for this setting: AR degradation, VCaP cells, 16 h, ELISA, Table 3-1, read-out: Dmax (%).

For the molecule `COc1cc(O[C@H]2CC[C@H](NC(=O)c3ccc(N4CCC(CN5CCC6(CC5)CN(c5ccc7c(c5)C(=O)N(C5CCC(=O)NC5=O)C7=O)C6)CC4)nn3)CC2)ccc1C#N` (some centres unmarked) [Compound 276, N-((1r,4r)-4-(4-cyano-3-methoxyphenoxy)cyclohexyl)-6-(4-((2-(2-(2,6-dioxopiperidin-3-yl)-1,3-dioxoisoindolin-5-yl)-2,7-diazaspiro[3.5]nonan-7-yl)methyl)piperidin-1-yl)pyridazine-3-carboxamide], the 50% degradation concentration (DC50) (as a rule, the midpoint of the concentration-degradation curve) under setting [1] was less than 10 nM. For the same molecule, under setting [2], the greatest degradation seen (Dmax) (usually the greatest extent of degradation seen) was more than 80%.

For the molecule `N#Cc1ccc(O[C@H]2CC[C@H](NC(=O)c3cnc(N4CCN(C5CC6(CCN(c7cc8c(cc7F)C(=O)N(C7CCC(=O)NC7=O)C8=O)CC6)C5)CC4)cn3)CC2)cc1Cl` (some centres unmarked) [Compound 277, N-((1r,4r)-4-(3-chloro-4-cyanophenoxy)cyclohexyl)-5-(4-(7-(2-(2,6-dioxopiperidin-3-yl)-6-fluoro-1,3-dioxoisoindolin-5-yl)-7-azaspiro[3.5]nonan-2-yl)piperazin-1-yl)pyrazine-2-carboxamide], under setting [1], the half-maximal degradation concentration (DC50) was 10 to 100 nM. In addition, the maximal degradation (Dmax) under setting [2] was more than 80%.

As to `N#Cc1ccc(OC2CCC(NC(=O)c3cnc(N4CCN(C5CC6(CCN(c7ccc8c(c7)C(=O)N(C7CCC(=O)NC7=O)C8=O)CC6)C5)CC4)cn3)CC2)cc1Cl` (centres unmarked) [Compound 278, N-((1r,4r)-4-(3-chloro-4-cyanophenoxy)cyclohexyl)-5-(4-(7-(2-(2,6-dioxopiperidin-3-yl)-1,3-dioxoisoindolin-5-yl)-7-azaspiro[3.5]nonan-2-yl)piperazin-1-yl)pyrazine-2-carboxamide], the “Dmax (%)” value (AR degradation, VCaP cells, 16 h, ELISA, Table 3-1) is given as “++++ (>80%)”. The 50% degradation concentration (DC50) under setting [1] was less than 10 nM.

Take `N#Cc1ccc(O[C@H]2CC[C@H](NC(=O)c3cnc(N4CCC(CN5CCC6(CC5)CN(c5ccc7c(c5)C(=O)N(C5CCC(=O)NC5=O)C7=O)C6)CC4)nn3)CC2)cc1Cl` (some centres unmarked) [Compound 279, N-((1r,4r)-4-(3-chloro-4-cyanophenoxy)cyclohexyl)-3-(4-((2-(2-(2,6-dioxopiperidin-3-yl)-1,3-dioxoisoindolin-5-yl)-2,7-diazaspiro[3.5]nonane-7-yl)methyl)piperidin-1-yl)-1,2,4-triazine-6-formamide]: the DC50 was less than 10 nM and the Dmax was more than 80%.

Take `N#Cc1ccc(O[C@H]2CC[C@H](NC(=O)c3cnc(N4CCC(N5CCC6(CC5)CN(c5ccc7c(c5)C(=O)N(C5CCC(=O)NC5=O)C7=O)C6)CC4)cn3)CC2)cc1Cl` (some centres unmarked) [Compound 280, N-((1r,4r)-4-(3-chloro-4-cyanophenoxy)cyclohexyl)-5-(4-(2-(2-(2,6-dioxopiperidin-3-yl)-1,3-dioxoisoindolin-5-yl)-2,7-diazaspiro[3.5]nonan-7-yl)piperidin-1-yl)pyrazine-2-carboxamide]: the 50% degradation concentration (DC50) under setting [1] fell in the range of 10 to 100 nM. Besides, the maximal degradation (Dmax) under setting [2] was more than 80%.

For the molecule `N#Cc1ccc(O[C@H]2CC[C@H](NC(=O)c3ccc(N4CCC(N5CCC6(CC5)CN(c5ccc7c(c5)C(=O)N(C5CCC(=O)NC5=O)C7=O)C6)CC4)nn3)CC2)cc1Cl` (some centres unmarked) [Compound 281, N-((1r,4r)-4-(3-chloro-4-cyanophenoxy)cyclohexyl)-6-(4-(2-(2-(2,6-dioxopiperidin-3-yl)-1,3-dioxoisoindolin-5-yl)-2,7-diazaspiro[3.5]nonan-7-yl)piperidin-1-yl)pyridazine-3-formamide], under setting [1], the 50% degradation concentration (DC50) is less than 10 nM. Moreover, the Dmax under setting [2] was more than 80%.

With `N#Cc1ccc(O[C@H]2CC[C@H](NC(=O)c3ccc(N4CC5(CCN(CC6CCN(c7ccc8c(c7)C(=O)N(C7CCC(=O)NC7=O)C8=O)CC6)CC5)C4)nn3)CC2)cc1Cl` (some centres unmarked) [Compound 282, N-((1r,4r)-4-(3-chloro-4-cyanophenoxy)cyclohexyl)-6-(7-((1-(2-(2,6-dioxopiperidin-3-yl)-1,3-dioxoisoindolin-5-yl)piperidine-4-yl)methyl)-2,7-diazaspiro[3.5]nonan-2-yl)pyridazine-3-formamide], under setting [1], the DC50 was less than 10 nM. The Dmax under setting [2] was more than 80%.

For the molecule `N#Cc1ccc(O[C@H]2CC[C@H](NC(=O)c3cnc(N4CC5(CCN(CC6CCN(c7ccc8c(c7)C(=O)N(C7CCC(=O)NC7=O)C8=O)CC6)CC5)C4)cn3)CC2)cc1Cl` (some centres unmarked) [Compound 283, N-((1r,4r)-4-(3-chloro-4-cyanophenoxy)cyclohexyl)-6-(7-((1-(2-(2,6-dioxopiperidin-3-yl)-1,3-dioxoisoindolin-5-yl)piperidine-4-yl)methyl)-2,7-diazaspiro[3.5]nonan-2-yl)pyrazine-3-formamide], under setting [1], the DC50 was less than 10 nM. The Dmax under setting [2] is more than 80%.

For the molecule `N#Cc1ccc(OC2CCC(NC(=O)c3ccc(N4CCC5(CC4)CN(CC4CCN(c6cc7c(cc6F)C(=O)N(C6CCC(=O)NC6=O)C7=O)CC4)C5)nn3)CC2)cc1C(F)(F)F` (centres unmarked) [Compound 285, N-((1r,4r) 4-(4-cyano-3-(trifluoromethyl)phenoxy)cyclohexyl)-6-(2-((1-(2,6-dioxopiperidin-3-yl)-6-fluoro-1,3-dioxoisoindolin-5-yl)piperidine-4-yl)methyl)-2,7-diazaspiro [3.5] nonan-7-yl)pyridazine-3-formamide], the “Dmax (%)” value is recorded as “++++ (key: A: >80%; B: 79%-50%; C: 49%-25%; D: <25%)”. The 50% degradation concentration (DC50) (read-out: DC50) is less than 10 nM.

For `N#Cc1ccc(O[C@H]2CC[C@H](NC(=O)c3ccc(N4CCN(C[C@@H]5[C@H]6CN(c7cc8c(cc7F)C(=O)N(C7CCC(=O)NC7=O)C8=O)C[C@@H]56)CC4)cn3)CC2)cc1Cl` (some centres unmarked) [Compound 286], under setting [1], the DC50 was 10 to 100 nM. In addition, the Dmax under setting [2] was 60 to 80%.

With `N#Cc1ccc(O[C@H]2CC[C@H](NC(=O)c3cnc(N4CCC(N5CCC6(CC5)CN(c5cc7c(cc5F)C(=O)N(C5CCC(=O)NC5=O)C7=O)C6)CC4)cn3)CC2)cc1Cl` (some centres unmarked) [Compound 287, N-((1r,4r)-4-(3-chloro-4-cyanophenoxy)cyclohexyl)-5-(4-(2-(2-(2,6-dioxopiperidin-3-yl)-6-fluoro-1,3-dioxoisoindolin-5-yl)-2,7-diazaspiro[3.5]nonan-7-yl)piperidin-1-yl)pyrazine-2-carboxamide], the 50% degradation concentration (DC50) under setting [1] is less than 10 nM. Also, under setting [2], the greatest degradation seen (Dmax) was more than 80%.

Turning to `CC1(C)[C@H](Oc2ccc(C#N)c(Cl)c2)C(C)(C)[C@H]1N1Cc2nc(C#CC3CN(C4CN(c5cc6c(cc5F)C(=O)N(C5CCC(=O)NC5=O)C6=O)C4)C3)ccc2C1=O` (some centres unmarked) [Compound 322], under setting [1], the DC50 was less than 10 nM. Moreover, the Dmax under setting [2] lay within 60 to 80%.

With `CC1(C)[C@H](Oc2ccc(C#N)c(Cl)c2)C(C)(C)[C@H]1N1Cc2nc(C#C[C@H]3CC[C@H](N4CCN(c5ccc6c(c5)C(=O)N(C5CCC(=O)NC5=O)C6=O)CC4)CC3)ccc2C1=O` (some centres unmarked) [Compound 325], the 50% degradation concentration (DC50) under setting [1] is less than 10 nM. Further, the Dmax under setting [2] is more than 80%.

With `CC1(C)[C@H](Oc2ccc(C#N)c(Cl)c2)C(C)(C)[C@H]1N1Cc2nc(C#CC3CCC(N4CC5CN(c6cc7c(cc6F)C(=O)N(C6CCC(=O)NC6=O)C7=O)CC5C4)CC3)ccc2C1=O` (some centres unmarked) [Compound 340], under setting [1], the DC50 was less than 10 nM. Besides, the Dmax under setting [2] is more than 80%.

Consider `CC1(C)[C@H](Oc2ccc(C#N)c(Cl)c2)C(C)(C)[C@H]1N1Cc2nc(C#CC3CCC(N4CC5(CN(c6cc7c(cc6F)C(=O)N(C6CCC(=O)NC6=O)C7=O)C5)C4)CC3)ccc2C1=O` (some centres unmarked) [Compound 341], for which, under setting [1], the half-maximal degradation concentration (DC50) is 10 to 100 nM. Moreover, the Dmax under setting [2] fell in the range of 60 to 80%.

Take `CC1(C)[C@H](Oc2ccc(C#N)c(Cl)c2)C(C)(C)[C@H]1N1Cc2nc(C#CC3CCC(N4CC5CC4CN5c4cc5c(cc4F)C(=O)N(C4CCC(=O)NC4=O)C5=O)CC3)ccc2C1=O` (some centres unmarked) [Compound 343]: the DC50 under setting [1] was more than 300 nM. The Dmax under setting [2] was in the range of 40 to 60%.
